Results published in patent publication US11840560B2, “Prodrugs and uses thereof” (Novo Nordisk A/S, priority 2022, dated 2023).
Marks after values point to notes of the source that are not given here. *1 amine or outer side, *2 acyl side, *3 side chain or, on linkers, in order; H or OH if unused. Where a SMILES comes first, the peptide text is derived from it. Side-chain parts run from the residue outwards. [ ]: non-standard residue; d: D form. The star is where a group is joined. C18 diacid = O=C(O)CCCCCCCCCCCCCCCCC(=O)*; C16 diacid = O=C(O)CCCCCCCCCCCCCCC(=O)*; γGlu = O=C(O)[C@H](CCC(=O)[*:2])N[*:1]; εLys = N[C@@H](CCCCN[*:1])C(=O)[*:2]; AEEA = NCCOCCOCC(=O)O; Aib = CC(C)(N)C(=O)O; Sar = CNCC(=O)O

How the values were obtained:
in vivo [1] = assay: in vivo; parameters: species or system Göttingen minipigs; conditions: female, Göttingen, minipig, iv
Procedure: The purpose of this method is to determine the half-life in vivo of the derivatives of the present invention after i.v. administration to minipigs, i.e. the prolongation of their time in the body and thereby their time of action. This is done in a pharmacokinetic (PK) study, where the terminal half-life of the derivative in question is determined. By terminal half-life is generally meant the period of time it takes to halve a certain plasma concentration, measured after the initial distribution phase.
Female Göttingen minipigs were obtained from Ellegaard Göttingen Minipigs (Dalmose, Denmark) approximately 7-14 months of age and weighing from approximately 16-35 kg were used in the studies. The minipigs were housed individually and fed restrictedly once daily with SDS minipig diet (Special Diets Services, Essex, UK).
After at 3 weeks of acclimatisation two permanent central venous catheters were implanted in vena cava caudalis in each animal. The animals were allowed 1 week recovery after the surgery, and were then used for repeated pharmacokinetic studies with a suitable wash-out period between successive derivative dosing.
The animals were fasted for approximately 18 hours before dosing and from 0 to 4 hours after dosing but had ad libitum access to water during the whole period.
The sodium salts of compounds of Examples 1 were prepared using method SX_A under General Methods for preparation of the compounds of the invention. The resulting sodium salts were dissolved to a concentration of 50-300 nmol/mL in a buffer containing 0.007% polysorbate 20, 50 mM sodium phosphate, 70 mM sodium chloride, pH 7.4. Intravenous injections (the volume corresponding to usually 1-20 nmol/kg, for example 0.02-0.05 mL/kg) of the compounds were given through one catheter, and blood was sampled at predefined time points for up to 21 days post dosing (preferably through the other catheter). Blood samples (for example 0.8 mL) were collected in 8 mM EDTA buffer and then centrifuged at 4° C. and 1942 g for 10 minutes.
Plasma was pipetted into Micronic tubes on dry ice and kept at −20° C. until analysed for plasma concentration of the compounds using ELISA, or a similar antibody-based assay, or LCMS. Individual plasma concentration-time profiles were analysed by a non-compartmental model in Phoenix WinNonLin ver. 6.4. (Pharsight Inc., Mountain View, CA, USA), and the resulting terminal half-lives (harmonic mean) determined.
The terminal half-lives and/or the observed terminal half-lives, measured as described herein in General Methods for Measuring Terminal Half-Life in Minipigs are shown in Table 7. […] This provides evidence that conversion of prodrug to parent compound is occurring in vivo. The terminal half-life of the prodrug may be faster or slower than the corresponding parent compound due to the contribution of conversion on the terminal half-life of the prodrug.

in vivo [2] = assay: in vivo; parameters: species or system beagle dogs; conditions: dog, po, 300 mg; for Tmax / half-life: male, beagle
Procedure: The purpose of this method is to determine the terminal half-life and plasma exposure in vivo of the compounds of the present invention after p.o. administration to beagle dogs, i.e. the terminal half-life and concentration of test substance that reaches circulation with time. This is done in a pharmacokinetic (PK) study, where these parameters of the compound in question are determined. By terminal half-life is generally meant the period of time it takes to halve a certain plasma concentration, measured after the initial distribution phase.
Tablet compositions comprising the test compounds obtained from Example 1 and SNAC (sodium N-(8-(2-hydroxybenzoyl)amino)caprylate) were prepared according to methods known to the person skilled in the art by mixing test substance with roller compacted SNAC and magnesium stearate as e.g. described in WO 2019/149880. Each tablet was comprised of 7.7 mg magnesium stearate, 2-4 mg of each compound tested, and 300 mg SNAC.
Male beagle dogs, 1-7 years of age and weighing 9-17 kg during the study period, were included in the study. The dogs were dosed in a fasting state. The dogs were group housed in pens (12 hours light: 12 hours dark), and fed individually and restrictedly once daily with Royal Canin Medium Adult dog food (Royal Canin Products, China Branch, or Brogaarden A/S, Denmark). The dogs were used for repeated PK studies with a suitable wash-out period between successive dosing. An appropriate acclimatisation period was given prior to initiation of the first PK study. All handling, dosing, and blood sampling of the animals were performed by trained and skilled staff. Before the studies, the dogs were fasted overnight and from 0 to 4 hours after dosing. The dogs were restricted to water 1 hour before dosing until 4 hours after dosing, but otherwise had adlibitum access to water during the whole period.
The compositions were administered by a single oral dosing to the dogs in groups of 6-8 dogs. The tablets were administered in the following manner: 10 min prior to tablet administration, the dogs may be dosed subcutaneously with approximately 3 nmol/kg of SEQ ID NO.: 7 ([…]), then tablets were placed in the back of the mouth of the dog to prevent chewing. The mouth was then closed, and 10 mL of tap water was given by syringe or gavage to facilitate swallowing of the tablet.
One blood sample was drawn before dosing, and additional samples were drawn at predefined time points after dosing, such as for up to 600 hours, to adequately cover the full plasma concentration-time absorption profile of the test substance. For each blood sample time point, approximately 0.8 mL of whole blood was collected in a 1.5 mL EDTA-coated tube, which was gently turned to mix the sample with EDTA. Blood samples were collected in EDTA buffer (8 mM) and then centrifuged at 4° C. and 2000 g for 10 minutes. Plasma was pipetted into Micronic tubes on dry ice, and kept at −20° C. or lower until analysis. Blood samples were taken as appropriate, for example from a venflon in the cephalic vein in the front leg for the first 2 hours and then with syringe from the jugular vein for the rest of the time points. The first few drops were allowed to drain from the venflon to avoid heparin saline from the venflon in the sample. All blood samples were collected into test tubes containing EDTA for stabilisation and kept on ice until centrifugation. Plasma was separated from whole blood by centrifugation and the plasma was stored at −20° C. or lower until analysis.
The plasma was analysed for test substance using LC-MS (Liquid Chromatography-Mass Spectrometry) as known to the person skilled in the art. […]

physchem = assay type: physicochemical; conditions: buffer, pH 7.4
Procedure: The assay was performed to investigate the conversion half-life of prodrug to drug of the prodrugs of the invention. The conversion half-life was investigated in vitro at pH 7.4 upon incubation at 37° C.
Test compounds were dissolved to a concentration of 100 μM in phosphate-buffered saline (140 mM NaCl, 2.07 mM KCl, 8.05 mM Na2HPO4, 1.96 mM KH2PO4, pH 7.4). Solution pH was measured after dissolution and adjusted to pH 7.4 with aqueous NaOH if necessary. The solution was filtered through a 0.22 μm syringe filter, then incubated in a water bath at 37° C. Aliquots were withdrawn at defined timepoints, e.g. every 24-72 hours, for LCMS analysis.
LCMS analysis was performed using the procedure defined in LCMS_A above. The AUC of the prodrug, active drug, and DKP were determined using UV detection at 214 nm, and the ratio of prodrug AUC over total AUC of prodrug plus active drug plus DKP was calculated. The negative natural logarithm of this ratio was plotted over time, and a linear regression of this relationship was then performed.
The prodrug to drug conversion half-life of the compounds of the invention was measured as described in General Methods for Measuring Conversion Half-life.

CC[C@H](C)[C@H](NC(=O)[C@H](Cc1ccccc1)NC(=O)[C@H](CCC(=O)O)NC(=O)[C@H](CCCNC(=N)N)NC(=O)[C@H](C)NC(=O)[C@H](C)NC(=O)[C@H](CCC(N)=O)NC(=O)[C@H](CCC(=O)O)NC(=O)[C@H](CCC(=O)O)NC(=O)[C@H](CC(C)C)NC(=O)[C@H](CC(C)C)NC(=O)[C@@H](NC(=O)[C@H](CO)NC(=O)[C@H](Cc1ccc(O)cc1)NC(=O)[C@H](CC(=O)O)NC(=O)[C@H](CO)NC(=O)[C@@H](NC(=O)[C@H](Cc1ccccc1)NC(=O)[C@@H](NC(=O)CNC(=O)[C@H](CCC(=O)O)NC(=O)C(C)(C)NC(=O)[C@@H](N)Cc1ccc(O)cc1)[C@@H](C)O)[C@@H](C)O)[C@@H](C)CC)C(=O)N[C@@H](CCC(=O)O)C(=O)N[C@@H](Cc1c[nH]c2ccccc12)C(=O)N[C@@H](CC(C)C)C(=O)N[C@@H](CC(C)C)C(=O)N[C@@H](C)C(=O)NCC(=O)NCC(=O)N1CCC[C@H]1C(=O)N[C@@H](CO)C(=O)N[C@@H](CCCCNC(=O)COCCOCCNC(=O)COCCOCCNC(=O)CC[C@H](NC(=O)CCCCCCCCCCCCCCC(=O)O)C(=O)O)C(=O)NCC(=O)N[C@@H](C)C(=O)N1CCC[C@H]1C(=O)N1CCC[C@H]1C(=O)N1CCC[C@H]1C(=O)N[C@@H](CO)C(=O)O [Parent compound 1] (H-Y[Aib]EGTFTSDYSILLEEQAAREFIEWLLAGGPSK([AEEA-AEEA-γGlu-C16 diacid])GAPPPS-OH)
half-life (in vivo [1]): 121 h | AUC/Dose (in vivo [2]): 60.7 kg·h/L | Cmax/Dose (in vivo [2]): 0.67 kg/L | Tmax (in vivo [2]): 1.5 h | half-life (in vivo [2]): 104 h

CC[C@H](C)[C@H](NC(=O)[C@H](Cc1ccccc1)NC(=O)[C@H](CCC(=O)O)NC(=O)[C@H](CCCNC(=N)N)NC(=O)[C@H](C)NC(=O)[C@H](C)NC(=O)[C@H](CCC(N)=O)NC(=O)[C@H](CCCCNC(=O)[C@@H](N)CCCCNC(=O)[C@@H](N)CCCCNC(=O)CC[C@H](NC(=O)CCCCCCCCCCCCCCCCC(=O)O)C(=O)O)NC(=O)[C@H](CCC(=O)O)NC(=O)[C@H](CC(C)C)NC(=O)[C@H](CC(C)C)NC(=O)[C@@H](NC(=O)[C@H](CO)NC(=O)[C@H](Cc1ccc(O)cc1)NC(=O)[C@H](CC(=O)O)NC(=O)[C@H](CO)NC(=O)[C@@H](NC(=O)[C@H](Cc1ccccc1)NC(=O)[C@@H](NC(=O)CNC(=O)[C@H](CCC(=O)O)NC(=O)C(C)(C)NC(=O)[C@@H](N)Cc1ccc(O)cc1)[C@@H](C)O)[C@@H](C)O)[C@@H](C)CC)C(=O)N[C@@H](CCC(=O)O)C(=O)N[C@@H](Cc1c[nH]c2ccccc12)C(=O)N[C@@H](CC(C)C)C(=O)N[C@@H](CC(C)C)C(=O)N[C@@H](C)C(=O)NCC(=O)NCC(=O)N1CCC[C@H]1C(=O)N[C@@H](CO)C(=O)N[C@@H](CO)C(=O)NCC(=O)N[C@@H](C)C(=O)N1CCC[C@H]1C(=O)N1CCC[C@H]1C(=O)N1CCC[C@H]1C(=O)N[C@@H](CO)C(=O)O [Parent compound 4] (H-Y[Aib]EGTFTSDYSILLEK([εLys-εLys-γGlu-C18 diacid])QAAREFIEWLLAGGPSSGAPPPS-OH)
half-life (in vivo [1]): 106 h | AUC/Dose (in vivo [2]): 17.9* kg*h/L | Cmax/Dose (in vivo [2]): 0.35* kg/L

H-K([Gly-γGlu-C16 diacid])[Sar]Y[Aib]EGTFTSDYSILLEEQAAREFIEWLLAGGPSK([AEEA-AEEA-γGlu-C16 diacid])GAPPPS-OH [Compound 9]
half-life (in vivo [1]): 102 h | half-life at 100 μM (physchem): 132 h

H-K([γGlu-C16 diacid])VY[Aib]EGTFTSDYSILLEEQAAREFIEWLLAGGPSK([AEEA-AEEA-γGlu-C16 diacid])GAPPPS-OH [Non-converting compound 1]
half-life (in vivo [1]): 170 h | AUC/Dose (in vivo [2]): 20.1 kg·h/L | Cmax/Dose (in vivo [2]): 0.21 kg/L | Tmax (in vivo [2]): 1.5 h | half-life (in vivo [2]): 137 h

H-K([γGlu-C16 diacid])[Sar]Y[Aib]EGTFTSDYSILLEEQAAREFIEWLLAGGPSK([AEEA-AEEA-γGlu-C16 diacid])GAPPPS-OH [Compound 3]
half-life (in vivo [1]): 119 h | half-life at 100 μM (physchem): 111 h | AUC/Dose (in vivo [2]): 38.5 kg·h/L | Cmax/Dose (in vivo [2]): 0.32 kg/L | Tmax (in vivo [2]): 7 h | half-life (in vivo [2]): 139 h

H-[dK]([AEEA-AEEA-γGlu-C16 diacid])[Sar]Y[Aib]EGTFTSDYSILLEEQAAREFIEWLLAGGPSK([AEEA-AEEA-γGlu-C16 diacid])GAPPPS-OH [Compound 10]
half-life (in vivo [1]): 118 h | half-life at 100 μM (physchem): 195 h

H-[dK]([γGlu-C16 diacid])[Sar]Y[Aib]EGTFTSDYSILLEEQAAREFIEWLLAGGPSK([AEEA-AEEA-γGlu-C16 diacid])GAPPPS-OH [Compound 1]
half-life (in vivo [1]): 118 h | half-life at 100 μM (physchem): 244 h | AUC/Dose (in vivo [2]): 41.2 kg·h/L | Cmax/Dose (in vivo [2]): 0.66 kg/L | Tmax (in vivo [2]): 4 h | half-life (in vivo [2]): 146 h
